Results on 50 compounds are retold here after PubChem BioAssay (NCI).

What all share (experiment): inhibition of tumour cell growth, NCI panel, 48 h
Assay [1] deals with SNB-78 CNS.
Assay [2] concerns XF 498 CNS.
In assay [3] the test system is RXF-631 renal.
In assay [4] the test system is HS 578T breast.
Assay [5] relates to T-47D breast.
In assay [6] the test system is MDA-N.
Assay [7] deals with MDA-MB-231 breast.
Assay [8] deals with MCF7 breast.
Assay [9] has as its system MDA-MB-435.

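Tested at 5 concentrations; 48 h exposure; 96-well plates; endpoints linearly interpolated, else capped at highest concentration. GI50 = concentration required for 50% inhibition of growth. TGI is the concentration that stops growth completely.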

As for `CC(=O)OC1(C#N)CC2OC1C1C2N1C(=O)c1ccccc1` (stereo unspecified), the TGI in assay [1], in [2] and in assay [3] was greater than 100 µM throughout.

As for `Cc1cc2c3ccccc3n(C)c2c2c1C(=O)c1ccccc1C2=O`, the TGI in assay [2] is 35.7 µM; in assay [3], 98.5 µM.

As to `Nc1nc(-c2ccccc2)c(-c2ccccc2)c(-c2nc(N)nc(-c3ccccc3)c2-c2ccccc2)n1`, the TGI in assay [4], in assay [5], in [6], in assay [7], in [8] and in [9] was greater than 100 µM throughout.

Consider `COC(=O)C(C(=O)C(=O)Nc1cccc(O)c1)c1nc2ccc(Cl)cc2[nH]c1=O` (stereo unspecified), for which the TGI in assay [1] and in [3] was greater than 100 µM throughout.

On to `Cc1ccc2nc3c(Cl)cc(=O)cc-3sc2c1`, for which the TGI in assay [1] and in [3] was greater than 100 µM throughout.

In the case of `CC1=C(C(=O)Nc2cccc(C(F)(F)F)c2)C(c2ccc(O)cc2)C(C(=O)Nc2cccc(C(F)(F)F)c2)=C(C)N1`, the TGI in [1] was 83.2 µM; in assay [2], 8.06 µM; in [3], 41.6 µM.

For `N=C(N)n1ncc(Cl)c(Cl)c1=O`, the figures for the TGI in assay [1], in [2] and in [3] were 3.98 µM, 3.86 µM and 3.36 µM, respectively.

Consider `O=C(c1cc(=O)c2ccc(O)cc2o1)c1ccc(Cl)cc1Cl`, for which the TGI in assay [1] is greater than 100 µM; in [2] it was 62.6 µM; in assay [3], greater than 100 µM.

With `CC(=O)Nc1ccc2nncnc2c1`, the TGI in assay [4], in assay [5], in assay [6], in assay [7], in [8] and in [9] was greater than 100 µM throughout.

For the compound `CCOC(=O)C1=C(Nc2ccccc2)OC/C1=N\NC(=O)Cc1ccccc1`, the TGI in assay [1], in assay [2] and in assay [3] was greater than 50 µM each time.

Take `CCOc1ccccc1NC(=O)C(=O)CC(=O)C1=C(C)Nc2ccccc2S1`: the TGI in [1] and in [2] was greater than 100 µM each time.

For the compound `NC(=O)c1ccccc1NC(=O)C(=O)C(C(=O)c1ccc2ccccc2c1)C1OC(=O)c2ccccc21` (stereo unspecified), the TGI in assay [1] was greater than 100 µM; in [2] it was 12.8 µM.

On to `CCOP(=O)(CCP(=O)(OCC)OCC)OCC.C[CH2][Sn]([Cl])([Cl])[CH2]C`, for which the GI50 was greater than 100 µM in [4]; 18500 nM in [5]; greater than 100 µM in assay [6]; 25 µM in assay [7]; 21.6 µM in [8]; 17.2 µM in assay [1]. Also, the GI50 in assay [9] is greater than 100000 nM. The TGI in assay [4] was greater than 100 µM; in [5] it was 40.9 µM; in [6] it was greater than 100 µM; in assay [7], 92.2 µM; in [8], 44.4 µM; in [1], 41.8 µM. In [9], this compound had a TGI greater than 100 µM.

Regarding `O=C(c1cc2ccccc2[nH]1)C(O)(c1cc2ccccc2[nH]1)c1cc2ccccc2[nH]1`, the TGI in [3] is greater than 246 µM.

On to `Cc1cc(C)nc(NS(=O)(=O)c2ccc(Nc3c4ccccc4nc4c(C(=O)NCCN(C)C)ccc(Cl)c34)cc2)n1`, for which the TGI in assay [1] was determined as 35.5 µM; in assay [2] it was 17.3 µM.

In the case of `C/C=C/C=N/N(c1nnc(-c2ccccc2)c(-c2ccccc2)n1)S(=O)(=O)c1ccc(C)cc1`, the TGI was 83.2 µM in [1] and 73.2 µM in assay [3].

Consider `CC(=O)NNc1nc(C)c(C(=O)NNC(=O)C(=O)Nc2ccc(C)c(C)c2)s1`, for which, in [1], the TGI is greater than 100 µM.

Take `O=c1[nH]c(=S)[nH]c2c1sc(=S)n2-c1ccccc1`: the TGI in assay [1] and in [2] was greater than 100 µM each time.

For the compound `COC(=O)CCC(NC(=S)N/N=C(\C)c1ccccn1)C(=O)OC` (stereo unspecified), the TGI in assay [2] and in assay [3] was greater than 100 µM in each case.

Consider `Cc1c2ccccc2c(C)c2c3c(ccc12)C(=O)C=CC3=O`, for which the TGI worked out at 38 µM in [1] and 31.6 µM in assay [2].

`CC(C)c1cc(C(C)C)c(S(=O)(=O)NN)c(C(C)C)c1`: the TGI in assay [1] was greater than 100 µM.

Take `CC1C2Cc3ccc(O)cc3C1(C)CCN2C` (stereo unspecified): the TGI in [4], in [5], in assay [6], in assay [7], in [8] and in assay [9] was greater than 100 µM throughout.

For the compound `C=C1C(=O)OC2CCCCC3OC3C12` (stereo unspecified), the TGI in [1] came out at 56.5 µM; in assay [2] it was 24.7 µM; in assay [3], 19.2 µM.

With `Nc1ccc2c(c1)C(=O)c1ccc(F)cc1-2`, the TGI in [4], in assay [5], in assay [6], in assay [7], in assay [8] and in [9] was greater than 100 µM throughout.

On to `O=C(NCCCN1CCN(CCCNC(=O)c2cnc3ccccc3n2)CC1)c1cnc2ccccc2n1`, for which the TGI in assay [1] and in [3] was greater than 100 µM each time.

`O=C(CCc1nnc2s/c(=C\c3ccccc3)c(=O)n12)Nc1cc(Cl)ccc1Cl`: the TGI in [1], in assay [2] and in assay [3] was greater than 100 µM throughout.

On to `COc1ccc(/C=C/c2cc(OC)c(O[Si](C)(C)C(C)(C)C)c(OC)c2)cc1`, for which the TGI in [2] and in [3] was greater than 100 µM each time.

The compound `C/C(=N\NC(=O)CC(=O)Nc1ccc(C)cc1)c1cc2ccccc2oc1=O` showed a TGI in [2] greater than 100 µM.

Turning to `CN(C)CC(C(=O)c1ccccc1)c1ccccc1` (stereo unspecified), the GI50 in [4] is 2.19 µM; in assay [5] it was 2030 nM; in [7], 2.5 µM; in assay [8], 1.15 µM; in assay [9], 1900 nM. Further, the TGI in [4] stood at 12.8 µM; in assay [5] it was 5.73 µM; in assay [7], 10.1 µM; in [8] it was 3.35 µM; in [9], 7.38 µM.

In turn, `COc1ccc(/C=C/C(=O)c2sc(N)nc2C)cc1` registered a TGI in [1] greater than 100 µM.

With `Cn1cc(-c2csc(-c3c[nH]c4ncccc34)n2)c2cc(Br)cnc21`, the GI50 was 2.43 µM in assay [4]; 1800 nM in [5]; 3.02 µM in assay [7]; 6.77 µM in assay [8]; 3170 nM in assay [9]. Further, the TGI was greater than 100 µM in assay [4]; greater than 100 µM in assay [5]; greater than 100 µM in assay [7]; greater than 100 µM in assay [8]; 32.8 µM in [9].

In the case of `COC(=O)[C@]12CC[C@@H](C)[C@H](C)[C@@H]1C1=CC[C@@H]3[C@@]4(C)C[C@@H](OC(=O)c5ccco5)[C@H](O)[C@@](C)(CO)[C@@H]4[C@H](O)C[C@@]3(C)[C@]1(C)CC2`, the GI50 in assay [4] is 2.24 µM; in assay [5], 3130 nM; in assay [7], 2.23 µM; in assay [8], 1.8 µM; in assay [9] it was 2290 nM. The TGI was 7.4 µM in assay [4]; 9.17 µM in [5]; 4.8 µM in assay [7]; 3.71 µM in assay [8]; 5.75 µM in [9].

As to `COc1cccc(Nc2nc(NNC(=O)Cc3ccccc3)nc(NNC(=O)c3ccncc3)n2)c1`, the GI50 in assay [4], in [6], in [7] and in assay [8] was greater than 100 µM throughout. The TGI in assay [4], in assay [6], in assay [7], in [8] and in assay [9] was greater than 100 µM each time.

`Cc1cccc(CN(C)c2ccc(CO)c(Cl)c2)c1`: the GI50 was 22.5 µM in assay [4]; 1040 nM in [5]; 21.9 µM in assay [7]; 1.54 µM in assay [8]; 17200 nM in assay [9]. The TGI in assay [4] is greater than 83.3 µM; in assay [5], 7.66 µM; in [7] it was greater than 86.2 µM; in assay [8] it was 21.3 µM; in assay [9], 49.3 µM.

In the case of `COc1c(OC(C)=O)cc2c(OC(C)=O)c1CC(C)CC(OC)C(O)C(C)/C=C(\C)C(OC(N)=O)C(OC)/C=C\C=C(/C)C(=O)N2` (stereo unspecified), the TGI in assay [1], in assay [2] and in assay [3] was greater than 100 µM each time.

Regarding `N#Cc1ccc(Oc2nccc(-c3c(-c4ccc(F)cc4)ncn3C3CCNCC3)n2)cc1`, the GI50 in [4] is greater than 25 µM; in assay [5], greater than 25000 nM; in assay [7], greater than 22.3 µM; in [8] it was 10.7 µM; in assay [9], greater than 15100 nM. For the same compound, the TGI in [4], in assay [5], in assay [7], in assay [8] and in assay [9] was greater than 25 µM throughout.

On to `Nc1nnc2nc(CC(=O)/C=C/c3ccccc3)c(=O)[nH]n12`, for which the TGI in assay [1], in assay [2] and in [3] was greater than 100 µM each time.

Turning to `C[N+](C)(C)CCOP(=O)(O)OP(=O)([O-])OCC1CCC(n2ccc(N)nc2=O)O1` (stereo unspecified), the TGI in assay [4], in assay [5], in [6], in assay [7], in assay [8] and in [9] was greater than 100 µM each time.

With `O=C(CCCn1c2c(sc3ncccc32)c(=O)n2nnc(-c3ccccc3)c12)NCCc1cnc[nH]1`, the GI50 in assay [4] is 11.3 µM; in assay [5], 1870 nM; in [7], 17.8 µM; in [8] it was 18 µM; in assay [9], 489 nM. The TGI was 31.5 µM in [4]; 21.6 µM in [5]; 34.6 µM in [7]; greater than 100 µM in [8]; 20.5 µM in assay [9].

With `NC(=S)N/N=C(/CC(=O)c1ccc([N+](=O)[O-])cc1)C(=O)Nc1ncc([N+](=O)[O-])s1`, the TGI in [1], in assay [2] and in assay [3] was greater than 100 µM each time.

As to `CCSC1(SCC)CCN(C=NC(C)(C)C)C1`, the TGI in assay [1], in assay [2] and in assay [3] was greater than 100 µM each time.

Consider `CN(C)CCNC(=O)c1cccc2nc3ccc4ccccc4c3nc12`, for which, in assay [1], the TGI came to 10 µM.

Take `OC(c1ccccc1)(c1ccccc1)c1ccccn1`: the TGI in [1], in assay [2] and in assay [3] was greater than 100 µM each time.

Consider `O=C(CC(=O)N1N=C(n2ccc3ccccc32)CC1c1ccccc1)Nc1cccc(Cl)c1` (stereo unspecified), for which the TGI in [1] and in [3] was greater than 100 µM in each case.

On to `CC(=O)CC(=O)CCCC(=O)Nc1ccc(Cl)cc1C`, for which the TGI in assay [1] and in assay [3] was greater than 100 µM in each case.

Regarding `COc1cc(/C=C/C(=O)C(=Cc2ccc(F)c(F)c2)C(=O)/C=C/c2ccc(O)c(OC)c2)ccc1O`, the GI50 in assay [4] is 3.25 µM; in assay [5] it was 2310 nM; in [7], 3.48 µM; in assay [8], 2.57 µM; in assay [9], 2930 nM. The TGI in [4] stood at 15.4 µM; in assay [5], 7.7 µM; in assay [7] it was 16.7 µM; in [8], 11 µM; in assay [9], 10.2 µM.

As for `CCc1cccc(C(C)CC)c1N=C(NC(=O)c1ccccc1C(=O)NC(=Nc1c(CC)cccc1C(C)CC)SC)SC` (stereo unspecified), the TGI in assay [1], in assay [2] and in assay [3] was greater than 100 µM throughout.

For the compound `CCC(=O)C1=C(OC(C)=O)C2Cc3c(n(C)c4ccccc34)C(C1)N2C` (stereo unspecified), the TGI in assay [1] was found to be 56.4 µM; in [3] it was 67.2 µM.

Turning to `O=[N+]([O-])c1cccc(C2SCc3nc4ccccc4n32)c1` (stereo unspecified), in assay [1], the TGI was greater than 100 µM.

In the case of `C/C(CN1C(=O)c2ccccc2C1=O)=N\NS(=O)(=O)c1ccccc1`, the TGI in assay [1] and in [3] was greater than 100 µM throughout.
